Test results from ChEMBL document CHEMBL1201862, “PubChem BioAssay data set” (2004).
Calls of active or inactive are those of the source.

What was measured:
[1] = inhibitors of firefly luciferase expression or activity, dose response, H4 neuroglioma cells, luminescence (AID 1990); type: functional, cell-based
[2] = inhibitors of SNCA 5'UTR-driven reporter translation, confirmation, H4 neuroglioma cells, luminescence (AID 1988); type: functional, cell-based
P388/ADR = experiment: cells; type: functional; conditions: Mus musculus
[3] = target: T1, Eukaryotic translation initiation factor 2-alpha kinase 3 (Homo sapiens, UniProt Q9NZJ5); experiment: Counterscreen assay for PERK inhibitors: Dose response cell-based high throughput screening assay to measure inhibition of PERK at 6 hours. [Related pubchem assays: 1522, 1416 ]; type: functional
[4] = target: T1, Eukaryotic translation initiation factor 2-alpha kinase 3; experiment: Dose response cell-based high-throughput screening assay to measure PERK inhibition. [Related pubchem assays: 1416 ]; type: functional
SN12K1 = experiment: cells; type: functional; conditions: Homo sapiens
P388 = experiment: cells; type: functional; conditions: Mus musculus
BJ = experiment: cytotoxicity toward Ras-transformed BJeLR fibroblasts, dose response, cell-based, alamar blue fluorescence, cherrypicked samples (AID 2631); type: functional; conditions: Homo sapiens;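 further: confirmatory dose-response assay in RAS-dependent BJ fibroblasts engineered with TERT, LT and ST, with cytotoxicity read by fluorescence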
Steroidogenic factor 1 = Steroidogenic factor 1 (Homo sapiens, UniProt Q13285); experiment: Counterscreen for inverse agonists of the liver receptor homolog-1 (LRH-1; NR5A2): Luminescence-based cell-based high throughput dose response assay to identify inverse agonists of the Steroidogenic Factor 1 Nuclear Receptor (SF1; NR5A1).; type: functional
[5] = target: T2, Eukaryotic translation initiation factor 4H (Homo sapiens, UniProt Q15056); experiment: eIF4H inhibition in translation initiation, SAR follow-up (AID 435011); type: functional
[6] = target: T3, Polyadenylate-binding protein 1 (Homo sapiens, UniProt P11940); experiment: PABP inhibition in translation initiation, SAR follow-up (AID 435018); type: functional
[7] = target: Nuclear receptor subfamily 5 group A member 2 (Homo sapiens, UniProt O00482); type: functional, cell-based;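 further: HEK293T cells transfected with LRH-1 and a StAR promoter luciferase reporter; potency for inhibitors that lower LRH-1 driven reporter light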
[8] = StAR promoter reporter inhibition counter-screen, dose response, counter-screen for LRH-1 inverse agonist project, cell-based, luminescence, luciferase reporter (AID 651969); type: functional
[9] = target: T4, Rac GTPase-activating protein 1 (Homo sapiens, UniProt Q9H0H5); experiment: MgcRacGAP GTPase-activating activity inhibitors, confirmation, biochemical, ADP Hunter fluorescence, primary and confirmatory (AID 624330); type: functional
T4 sequence (Q9H0H5 whole entry): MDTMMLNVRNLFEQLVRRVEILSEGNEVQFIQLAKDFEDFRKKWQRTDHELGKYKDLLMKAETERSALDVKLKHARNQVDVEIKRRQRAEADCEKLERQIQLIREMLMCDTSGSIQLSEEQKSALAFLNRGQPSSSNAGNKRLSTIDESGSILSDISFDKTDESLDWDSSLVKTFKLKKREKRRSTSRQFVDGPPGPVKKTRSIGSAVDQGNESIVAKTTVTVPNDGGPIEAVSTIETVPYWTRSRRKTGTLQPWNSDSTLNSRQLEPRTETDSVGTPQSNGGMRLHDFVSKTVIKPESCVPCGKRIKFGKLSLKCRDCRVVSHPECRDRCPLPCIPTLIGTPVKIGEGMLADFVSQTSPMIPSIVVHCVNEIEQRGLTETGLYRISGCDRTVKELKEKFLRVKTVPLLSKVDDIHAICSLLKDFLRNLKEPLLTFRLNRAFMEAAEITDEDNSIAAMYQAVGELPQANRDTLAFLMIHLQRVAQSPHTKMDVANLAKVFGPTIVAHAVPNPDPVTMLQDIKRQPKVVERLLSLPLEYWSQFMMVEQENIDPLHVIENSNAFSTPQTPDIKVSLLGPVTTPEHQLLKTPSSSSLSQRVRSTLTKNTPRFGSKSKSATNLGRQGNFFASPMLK

[10] = target: Cyclin-dependent kinase 5/CDK5 activator 1 (Homo sapiens, UniProt Q00535); experiment: CDK5/p35 kinase inhibitors, dose response, biochemical, cherry-picked samples, set 2 (AID 504545)
[11] = blockers of SFLLRN-triggered platelet ATP secretion – cell-based, human platelets, luminescence, dry powder, dose response (AID 493100); type: functional
[12] = target: Photoreceptor-specific nuclear receptor (Homo sapiens, UniProt Q9Y5X4); experiment: NR2E3 inverse agonists, dose response, biochemical, TR-FRET (AID 463256); type: functional
[13] = target: Dual specificity protein phosphatase 3 (Homo sapiens, UniProt P51452); experiment: Dose Response Confirmation of compounds that inhibit VHR1 in Fluorescent Assay. [Related pubchem assays (depositor defined):AID1661, AID1878]; type: functional
[14] = target: T5, Tyrosine-protein phosphatase non-receptor type 7 (Homo sapiens, UniProt P35236); experiment: Dose Response confirmation of compounds that inhibit HePTP. [Related pubchem assays (depositor defined):AID1059, AID1661, AID2085]; type: functional
T5 sequence (P35236 whole entry): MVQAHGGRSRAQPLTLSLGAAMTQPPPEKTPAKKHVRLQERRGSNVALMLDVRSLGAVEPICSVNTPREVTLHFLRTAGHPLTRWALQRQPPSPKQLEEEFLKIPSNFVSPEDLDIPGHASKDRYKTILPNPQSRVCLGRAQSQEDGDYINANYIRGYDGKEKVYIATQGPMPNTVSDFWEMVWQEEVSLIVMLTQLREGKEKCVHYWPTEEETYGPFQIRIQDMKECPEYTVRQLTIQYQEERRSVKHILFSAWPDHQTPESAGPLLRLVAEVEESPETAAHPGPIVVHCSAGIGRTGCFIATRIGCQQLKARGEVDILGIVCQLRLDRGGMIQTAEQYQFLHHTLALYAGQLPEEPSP

[15] = target: Peroxisome proliferator-activated receptor gamma/Nuclear receptor corepressor 2 (Homo sapiens, UniProt P37231+Q9Y618); experiment: Counterscreen for NR2E3 inverse agonists: TR-FRET-based biochemical high throughput dose response assay to identify inverse agonists of the interaction between peroxisome proliferator-activated receptor gamma (PPARg) and nuclear receptor co-repressor 2 (NCOR2).; type: functional
[16] = target: DNA dC->dU-editing enzyme APOBEC-3G (Homo sapiens, UniProt Q9HC16); type: functional;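 further: Dose-response counterscreen measuring inhibition of APOBEC3G DNA deaminase activity, run while confirming APOBEC3A inhibitors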
[17] = target: T2, Eukaryotic translation initiation factor 4H; experiment: human eIF4H binding inhibitors, primary screen, translation initiation inhibitor project, biochemical, uHTS, fluorescence polarization (AID 2012)
[18] = target: T3, Polyadenylate-binding protein 1; experiment: PABP poly(A) RNA binding inhibitors, primary screen, biochemical, fluorescence polarization, uHTS (AID 2014)
[19] = target: DNA dC->dU-editing enzyme APOBEC-3A (Homo sapiens, UniProt P31941); experiment: Dose Response confirmation of small molecule APOBEC3A DNA Deaminase Inhibitors via a fluorescence-based single-stranded DNA deaminase assay. [Related pubchem assays (depositor defined):AID493011, AID493024]; type: functional
Sequence of DNA dC->dU-editing enzyme APOBEC-3A (P31941 whole entry): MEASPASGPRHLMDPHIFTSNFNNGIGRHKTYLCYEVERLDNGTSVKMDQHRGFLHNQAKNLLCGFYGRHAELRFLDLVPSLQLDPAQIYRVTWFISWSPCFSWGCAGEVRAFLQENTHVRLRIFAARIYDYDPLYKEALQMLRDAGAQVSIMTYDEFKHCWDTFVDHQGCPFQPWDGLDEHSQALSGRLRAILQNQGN

T1 sequence (Q9NZJ5 whole entry): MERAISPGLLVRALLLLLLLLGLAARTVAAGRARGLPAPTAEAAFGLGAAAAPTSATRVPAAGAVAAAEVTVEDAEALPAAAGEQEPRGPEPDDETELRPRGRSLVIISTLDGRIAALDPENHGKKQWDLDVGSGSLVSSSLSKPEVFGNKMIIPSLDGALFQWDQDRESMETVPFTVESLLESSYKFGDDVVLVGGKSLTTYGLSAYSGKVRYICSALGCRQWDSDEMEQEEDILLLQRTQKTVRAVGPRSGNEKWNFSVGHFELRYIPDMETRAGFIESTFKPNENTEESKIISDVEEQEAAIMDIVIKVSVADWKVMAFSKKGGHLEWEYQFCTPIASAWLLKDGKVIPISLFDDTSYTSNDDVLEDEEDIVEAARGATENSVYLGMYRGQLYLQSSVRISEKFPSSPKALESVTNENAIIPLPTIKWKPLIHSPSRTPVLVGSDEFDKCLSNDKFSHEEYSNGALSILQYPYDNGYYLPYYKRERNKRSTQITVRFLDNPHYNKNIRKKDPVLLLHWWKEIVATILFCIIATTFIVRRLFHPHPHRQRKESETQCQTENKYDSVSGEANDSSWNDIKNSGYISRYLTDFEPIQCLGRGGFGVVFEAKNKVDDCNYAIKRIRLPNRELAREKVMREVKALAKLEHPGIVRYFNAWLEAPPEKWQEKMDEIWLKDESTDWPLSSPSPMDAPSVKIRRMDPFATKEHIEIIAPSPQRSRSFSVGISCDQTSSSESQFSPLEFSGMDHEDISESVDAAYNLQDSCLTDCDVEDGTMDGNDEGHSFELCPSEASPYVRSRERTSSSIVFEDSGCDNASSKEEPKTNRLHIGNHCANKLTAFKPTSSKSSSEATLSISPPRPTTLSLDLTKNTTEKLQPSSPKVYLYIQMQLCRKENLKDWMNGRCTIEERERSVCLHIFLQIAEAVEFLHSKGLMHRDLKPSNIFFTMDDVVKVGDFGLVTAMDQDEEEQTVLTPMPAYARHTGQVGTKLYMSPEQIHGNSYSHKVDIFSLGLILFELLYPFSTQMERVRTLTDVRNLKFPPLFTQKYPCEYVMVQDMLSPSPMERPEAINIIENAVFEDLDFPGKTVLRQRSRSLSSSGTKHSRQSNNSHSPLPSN
T3 sequence (P11940 whole entry): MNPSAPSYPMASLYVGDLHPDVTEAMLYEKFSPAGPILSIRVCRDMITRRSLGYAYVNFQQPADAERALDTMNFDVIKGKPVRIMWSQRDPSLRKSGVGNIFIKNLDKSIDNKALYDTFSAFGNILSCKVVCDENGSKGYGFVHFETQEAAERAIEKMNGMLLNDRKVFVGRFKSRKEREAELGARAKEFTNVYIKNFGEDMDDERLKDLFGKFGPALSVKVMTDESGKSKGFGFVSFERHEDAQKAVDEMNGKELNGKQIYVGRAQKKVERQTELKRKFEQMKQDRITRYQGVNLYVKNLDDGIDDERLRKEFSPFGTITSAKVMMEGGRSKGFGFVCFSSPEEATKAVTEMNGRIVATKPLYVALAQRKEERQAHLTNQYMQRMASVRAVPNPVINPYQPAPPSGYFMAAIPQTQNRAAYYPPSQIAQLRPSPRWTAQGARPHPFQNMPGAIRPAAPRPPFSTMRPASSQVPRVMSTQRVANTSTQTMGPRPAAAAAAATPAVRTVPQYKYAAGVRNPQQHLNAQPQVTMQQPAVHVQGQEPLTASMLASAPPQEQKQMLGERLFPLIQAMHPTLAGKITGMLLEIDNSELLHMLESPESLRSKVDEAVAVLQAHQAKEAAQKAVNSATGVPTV
Sequence of Dual specificity protein phosphatase 3 (P51452 whole entry): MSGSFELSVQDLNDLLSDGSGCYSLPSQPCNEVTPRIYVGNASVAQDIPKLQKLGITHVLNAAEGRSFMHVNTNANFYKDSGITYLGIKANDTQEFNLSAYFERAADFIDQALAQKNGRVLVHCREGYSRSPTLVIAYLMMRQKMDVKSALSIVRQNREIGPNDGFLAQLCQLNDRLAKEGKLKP
Sequence of Nuclear receptor subfamily 5 group A member 2 (O00482 whole entry): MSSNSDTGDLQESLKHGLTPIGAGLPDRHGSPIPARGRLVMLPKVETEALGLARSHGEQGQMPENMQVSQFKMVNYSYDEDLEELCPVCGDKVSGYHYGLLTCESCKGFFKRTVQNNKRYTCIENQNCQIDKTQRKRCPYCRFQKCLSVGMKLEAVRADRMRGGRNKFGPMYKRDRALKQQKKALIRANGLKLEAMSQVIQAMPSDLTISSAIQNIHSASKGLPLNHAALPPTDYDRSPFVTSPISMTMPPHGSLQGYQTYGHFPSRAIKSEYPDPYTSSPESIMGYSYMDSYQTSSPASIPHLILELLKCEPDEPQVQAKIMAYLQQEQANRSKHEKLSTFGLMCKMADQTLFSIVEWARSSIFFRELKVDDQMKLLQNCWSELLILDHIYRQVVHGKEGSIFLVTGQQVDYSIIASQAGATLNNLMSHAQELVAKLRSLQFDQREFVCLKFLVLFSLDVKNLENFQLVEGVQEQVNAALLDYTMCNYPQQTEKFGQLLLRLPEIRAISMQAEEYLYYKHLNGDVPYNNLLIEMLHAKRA
Sequence of Cyclin-dependent kinase 5/CDK5 activator 1 (Q00535 whole entry): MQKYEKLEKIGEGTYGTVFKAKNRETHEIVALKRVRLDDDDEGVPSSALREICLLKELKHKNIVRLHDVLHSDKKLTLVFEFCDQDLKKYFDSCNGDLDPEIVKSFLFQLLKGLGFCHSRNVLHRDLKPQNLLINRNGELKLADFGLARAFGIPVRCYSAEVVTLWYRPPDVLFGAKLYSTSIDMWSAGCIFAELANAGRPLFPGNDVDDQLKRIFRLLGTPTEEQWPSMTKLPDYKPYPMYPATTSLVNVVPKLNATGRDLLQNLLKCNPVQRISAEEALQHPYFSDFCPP
Sequence of Cyclin-dependent kinase 5/CDK5 activator 1 (Q15078 whole entry, further chain): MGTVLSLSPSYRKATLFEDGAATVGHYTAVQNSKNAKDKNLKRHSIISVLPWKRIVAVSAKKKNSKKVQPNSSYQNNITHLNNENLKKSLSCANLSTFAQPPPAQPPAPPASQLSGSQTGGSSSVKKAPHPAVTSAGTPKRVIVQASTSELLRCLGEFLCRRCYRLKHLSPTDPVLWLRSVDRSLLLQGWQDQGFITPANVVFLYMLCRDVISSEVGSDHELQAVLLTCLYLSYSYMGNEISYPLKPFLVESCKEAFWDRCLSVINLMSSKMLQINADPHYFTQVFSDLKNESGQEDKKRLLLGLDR
Sequence of Photoreceptor-specific nuclear receptor (Q9Y5X4 whole entry): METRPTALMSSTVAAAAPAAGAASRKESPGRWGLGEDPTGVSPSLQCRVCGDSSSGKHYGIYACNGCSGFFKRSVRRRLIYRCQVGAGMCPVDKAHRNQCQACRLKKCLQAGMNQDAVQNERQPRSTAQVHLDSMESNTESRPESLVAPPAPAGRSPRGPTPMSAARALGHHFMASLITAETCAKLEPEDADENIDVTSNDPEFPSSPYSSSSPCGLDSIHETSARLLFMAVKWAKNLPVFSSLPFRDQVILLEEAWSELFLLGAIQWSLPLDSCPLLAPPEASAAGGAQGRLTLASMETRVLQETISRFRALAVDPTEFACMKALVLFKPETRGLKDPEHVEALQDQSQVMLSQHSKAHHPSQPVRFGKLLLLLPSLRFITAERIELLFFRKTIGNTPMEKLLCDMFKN
Sequence of DNA dC->dU-editing enzyme APOBEC-3G (Q9HC16 whole entry): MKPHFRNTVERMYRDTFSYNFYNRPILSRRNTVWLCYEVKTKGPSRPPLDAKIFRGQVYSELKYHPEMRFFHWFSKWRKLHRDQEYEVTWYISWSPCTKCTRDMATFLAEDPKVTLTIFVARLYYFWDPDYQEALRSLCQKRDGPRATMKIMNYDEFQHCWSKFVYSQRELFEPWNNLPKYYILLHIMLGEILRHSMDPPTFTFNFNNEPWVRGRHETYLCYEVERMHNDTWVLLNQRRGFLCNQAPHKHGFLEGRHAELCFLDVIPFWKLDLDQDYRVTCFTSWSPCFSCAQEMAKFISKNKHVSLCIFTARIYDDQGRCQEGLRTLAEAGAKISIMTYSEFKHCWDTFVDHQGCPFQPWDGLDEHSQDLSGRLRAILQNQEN
Sequence of Steroidogenic factor 1 (Q13285 whole entry): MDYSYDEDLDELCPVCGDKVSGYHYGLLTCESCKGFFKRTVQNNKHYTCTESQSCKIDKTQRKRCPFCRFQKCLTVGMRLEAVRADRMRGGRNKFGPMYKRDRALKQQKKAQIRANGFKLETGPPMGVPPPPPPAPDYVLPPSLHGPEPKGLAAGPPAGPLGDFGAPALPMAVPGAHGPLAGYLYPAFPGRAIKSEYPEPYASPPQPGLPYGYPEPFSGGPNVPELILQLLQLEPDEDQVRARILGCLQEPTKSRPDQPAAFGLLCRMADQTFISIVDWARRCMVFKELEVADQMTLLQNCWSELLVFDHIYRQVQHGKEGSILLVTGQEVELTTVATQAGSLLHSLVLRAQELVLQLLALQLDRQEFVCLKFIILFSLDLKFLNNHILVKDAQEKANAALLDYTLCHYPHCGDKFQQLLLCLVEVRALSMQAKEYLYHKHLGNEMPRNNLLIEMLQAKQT

SMILES: CC[C@@]1(O)C(=O)OCc2c1cc1n(c2=O)Cc2cc3ccccc3nc2-1 [CAMPTOTHECIN]
- EC50 [1]: 0.134 µM (active)
- EC50 [2]: < 0.1 µM (active)
- GI50 (P388/ADR): 0.0254 µM (active)
- EC50 [3]: > 55.7 µM (not active)
- EC50 [4]: > 55.7 µM (not active)
- GI50 (SN12K1): 0.0245 µM (active)
- GI50 (P388): 0.0267 µM (active)
- EC50 (BJ): 0.00767 µM (active)

SMILES: CC(=O)Nc1ccc(NC(=O)CSc2ccc(-c3ccco3)nn2)cc1
- IC50 (Steroidogenic factor 1): 35.9 µM (inactive)
- IC50 [5]: 31.1 µM (active)
- IC50 [6]: > 100 µM (inactive)
- IC50 [7]: 35.9 µM (inactive)
- IC50 [8]: 35.9 µM (inactive)

SMILES: ON=C1c2ccccc2-c2ccc(O)cc21
- IC50 [9]: 23.6 µM (active)
- AC50 [10]: 17.6 µM (active)

SMILES: O=C(Nc1cccc(NC(=O)C2CCCC2)c1)c1ccccc1Br
- AC50 [11]: 8.81 µM (active)

SMILES: O=C(Nc1ccc2oc(-c3cccnc3)nc2c1)c1ccc2c(c1)OCCO2
- IC50 [12]: 1.61 µM (active)
- IC50 [13]: 8.43 µM (active)
- IC50 [14]: 5.36 µM (active)
- IC50 [15]: 1.46 µM (active)

SMILES: Cn1ccccc1=Nc1cccc[n+]1C
- IC50 [16]: 4.12 µM (active)
- IC50 [17]: > 100 µM (inactive)
- IC50 [18]: 6.54 µM (active)
- IC50 [19]: 2.8 µM (active)
